# Literature values as cited in US20150366832A1, “CARBIDOPA/LEVODOPA GASTRORETENTIVE DRUG DELIVERY” (INTEC PHARMA LTD., priority 2008, published 2015).
"crossing of the blood-brain barrier (human, in vivo)",half-life (Carbidopa and Levodopa administered together),plasma half-life (without Carbidopa),SMILES,reduction of the amount of Levodopa required to produce a given response (Carbidopa given with Levodopa)
does not cross the blood-brain barrier,–,–,C[C@@](Cc1ccc(O)c(O)c1)(NN)C(=O)O [Carbidopa],about 75%
–,about 1.5 hours,about 50 minutes,N[C@@H](Cc1ccc(O)c(O)c1)C(=O)O [Levodopa],–
